Measured values taken from patent publication US20030207812A1, “Cd45 inhibitors” (priority 2002, published 2003).
Where two headings read alike, the source gives them in different places. Where a SMILES comes first, the peptide text is derived from it. The star is where a group is joined. Phenanthrenequinone2carbonyl = O=C1C(=O)c2cc(C(=O)*)ccc2-c2ccccc21

Columns and labels:
[1] = biological target: T1, CD45 (Homo sapiens, UniProt P08575); experiment: Phosphatase assay using pNPP as substrate; type: biochemical
T1 construct: incubating the cytosolic portion of CD45 with the compounds and p-nitrophenyl phosphate (pNPP); purchased BIOMOL (Plymouth Meeting, Pa.)
T1 sequence (P08575 599-1306 limits assumed): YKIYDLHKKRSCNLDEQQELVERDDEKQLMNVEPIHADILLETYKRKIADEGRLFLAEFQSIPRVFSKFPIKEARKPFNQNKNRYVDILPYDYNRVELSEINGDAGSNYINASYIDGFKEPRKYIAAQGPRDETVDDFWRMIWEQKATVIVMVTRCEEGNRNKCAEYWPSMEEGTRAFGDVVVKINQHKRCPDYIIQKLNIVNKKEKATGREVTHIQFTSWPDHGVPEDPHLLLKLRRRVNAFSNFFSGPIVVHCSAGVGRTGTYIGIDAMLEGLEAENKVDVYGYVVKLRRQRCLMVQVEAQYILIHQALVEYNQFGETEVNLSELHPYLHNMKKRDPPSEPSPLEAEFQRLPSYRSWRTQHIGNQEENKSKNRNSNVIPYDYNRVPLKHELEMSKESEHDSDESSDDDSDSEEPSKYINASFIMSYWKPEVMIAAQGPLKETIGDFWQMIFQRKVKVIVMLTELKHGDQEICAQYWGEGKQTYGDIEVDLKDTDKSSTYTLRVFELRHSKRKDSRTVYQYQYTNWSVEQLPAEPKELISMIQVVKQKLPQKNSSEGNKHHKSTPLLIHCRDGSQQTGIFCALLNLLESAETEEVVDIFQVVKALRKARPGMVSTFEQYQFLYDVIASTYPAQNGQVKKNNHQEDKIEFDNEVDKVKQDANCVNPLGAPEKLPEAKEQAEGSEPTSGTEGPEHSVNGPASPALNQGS
Method: Phosphatase assay using pNPP as substrate:
CD45 enzyme was obtained from BIOMOL (Plymouth Meeting, Pa.). Phosphatase activity was assayed in a buffer containing final concentrations of 25 mM imidazole at pH 7.0, 50 mM NaCl, 2.5 mM ethylenediaminetetraacetic acid (“EDTA”), 5 mM dithiothreitol (“DTT”) and 10 μg/mL bovine serum albumin (“BSA”) using pNPP as a substrate.

[2] = biological target: T1, CD45; experiment: Phosphatase assay using lck 10-mer as substrate; type: biochemical
In short: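 Enzyme incubated with lck phosphopeptide TEGQpYQPQP for 1.5 h at room temperature in 25 mM HEPES pH 7.2, 5 mM DTT, 10 μg/mL BSA, 5% DMSO final. Compounds tested from 30 to 0.01 μM. Released phosphate detected with malachite-type Green Reagent, absorbance at 620 nm after 30 min.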

[3] = system: T cells (PBMC); experiment: cells; type: cell-based, human; details: human PBMC, OKT3 30 ng/mL, [3H]thymidine; read-out: T cell prolif. IC50
[4] = system: T-cell lymphoblasts; experiment: Cytotoxicity assay (Calcein-AM uptake); details: PHA-expanded T-cell lymphoblasts, overnight incubation, Calcein-AM
Method: (§1) Calcein-AM (Molecular Probes. Eugene, Oreg.) uptake, as a quantitative measure of cell viability, was used to evaluate the toxic effect of compounds on T cells.
(§2) The T-cell lymphoblasts were purified by separation over Lymphoprep, plated at 2×10^5/well in a round bottom 96-well plate containing RPMI with compound and incubated overnight at 37° C. in an incubator containing 5% CO2. The dilution scheme and culture media were the same as those used in the T-cell proliferation assay. After the incubation period, cells were washed with Dulbecco's phosphate-buffered saline (D-PBS) and incubated with 1 μM Calcein-AM for 30-45 mim in D-PBS as described in the technical sheet provided with The LIVE/DEAD Viability/Cytotoxicity Kit from Molecular Probes.

[5] = system: T-cell lymphoblasts
Method: as §1, §2

[6] = in vitro; details: human
Method: as §1, §2

[7] = CD45 phosphatase, pNPP substrate, pH 7.0, read-out: pNPP IC50
[8] = CD45 phosphatase, lck carboxy-terminal peptide TEGQpYQPQP substrate, pH 7.2, read-out: Ick IC50

For “8-(9,10-Dioxo-9,10-dihydro-phenanthren-3-ylcarbamoyl)-heptanoic Acid Methyl Ester [Example 78]”, the IC50 [1, 7] was 0.7 µM, the IC50 [2, 8] was 6.9 µM and the IC50 [3] was 1.3 µM. It also gave a CC50 [4] of 28 µM.
`CCCC(=O)Nc1ccc2c(c1)-c1ccccc1C(=O)C2=O` [Example 9, N-(9,10-Dioxo-9,10-dihydro-phenenathren-3-yl)-butyramide] gave an IC50 [1, 7] of 0.8 µM, an IC50 [2, 8] of 5.2 µM and an IC50 [3] of 0.8 µM. It also gave a CC50 [4] of 9.1 µM.
`O=C1C(=O)c2ccc(NC(=O)C(Cl)(Cl)Cl)cc2-c2ccccc21` [Example 11, 2,2,2-Trichloro-N(9,10-dioxo-9,10-dihydro-phenanthren-3-yl)-acetamide] showed an IC50 [1, 7] of 2.8 µM, an IC50 [2, 8] of 11.6 µM and an IC50 [3] of 6.5 µM. For the same compound, the CC50 [4] was over 30 µM.
Compound `O=C1C(=O)c2c(-c3ccc4ccccc4c3)cccc2-c2ccccc21` [Example 19, 1 -Naphthalen-2-yl-phenanthrene-9,10-dione] has an IC50 [1, 7] of 4.49 µM, an IC50 [2, 8] of over 30 µM and an IC50 [3] of 1.6 µM. The CC50 [5] was 4.4 µM.
With `N=C(N)NCCC[C@H](NC(=O)c1ccc2c(c1)C(=O)C(=O)c1ccccc1-2)C(=O)N[C@@H](CCC(=O)O)C(=O)N1CCC[C@H]1C(=O)N[C@@H](CCC(=O)O)C(=O)NCC(=O)O` [Example 45] (Phenanthrenequinone2carbonyl-REPEG-OH) the IC50 ([1]; pH 7, read-out: pNPP IC50) was 1.4 µM, the IC50 [2] was 3.9 µM and the CC50 [6] was over 30 µM.
`N=C(N)NCCC[C@H](NC(=O)CNC(=O)c1ccc2c(c1)C(=O)C(=O)c1ccccc1-2)C(=O)N1CCC[C@H]1C(=O)N[C@@H](CCC(=O)O)C(=O)NCC(=O)O` [Example 46] (Phenanthrenequinone2carbonyl-GRPEG-OH) showed an IC50 ([1]; pH 7, read-out: pNPP IC50) of 1 µM, an IC50 [2] of 3.8 µM and a CC50 [6] of over 30 µM.
With `N=C(N)NCCC[C@H](NC(=O)[C@H](CCC(=O)O)NC(=O)c1ccc2c(c1)C(=O)C(=O)c1ccccc1-2)C(=O)N1CCC[C@H]1C(=O)N[C@@H](CCC(=O)O)C(=O)NCC(=O)O` [Example 47] (Phenanthrenequinone2carbonyl-ERPEG-OH) the IC50 ([1]; pH 7, read-out: pNPP IC50) was 0.7 µM, the IC50 [2] was 4.2 µM and the CC50 [6] was over 30 µM.
`N=C(N)NCCC[C@H](NC(=O)c1ccc2c(c1)C(=O)C(=O)c1ccccc1-2)C(=O)N[C@@H](CCCNC(=N)N)C(=O)N1CCC[C@H]1C(=O)N[C@@H](CCC(=O)O)C(=O)NCC(=O)O` [Example 48] (Phenanthrenequinone2carbonyl-RRPEG-OH) gave an IC50 ([1]; pH 7, read-out: pNPP IC50) of 0.6 µM, an IC50 [2] of 5.7 µM and a CC50 [6] of over 30 µM.
`N=C(N)NCCC[C@H](NC(=O)[C@@H]1CCCN1C(=O)CNC(=O)CNC(=O)c1ccc2c(c1)C(=O)C(=O)c1ccccc1-2)C(=O)NCC(=O)O` [Example 49] (Phenanthrenequinone2carbonyl-GGPRG-OH) gave an IC50 ([1]; pH 7, read-out: pNPP IC50) of 0.9 µM, an IC50 [2] of 6.1 µM and a CC50 [6] of over 30 µM.
With `N=C(N)NCCC[C@H](NC(=O)[C@@H]1CCCN1C(=O)CNC(=O)[C@H](CCC(=O)O)NC(=O)c1ccc2c(c1)C(=O)C(=O)c1ccccc1-2)C(=O)NCC(=O)O` [Example 50] (Phenanthrenequinone2carbonyl-EGPRG-OH) the IC50 ([1]; pH 7, read-out: pNPP IC50) was 0.7 µM, the IC50 [2] was 2.8 µM and the CC50 [6] was over 30 µM.
Work on `N=C(N)NCCC[C@H](NC(=O)c1ccc2c(c1)C(=O)C(=O)c1ccccc1-2)C(=O)NCC(=O)N1CCC[C@H]1C(=O)N[C@@H](CCCNC(=N)N)C(=O)NCC(=O)O` [Example 51] (Phenanthrenequinone2carbonyl-RGPRG-OH) yielded an IC50 ([1]; pH 7, read-out: pNPP IC50) of 1.1 µM, an IC50 [2] of 4.8 µM and a CC50 [6] of over 30 µM.
Work on `N=C(N)NCCC[C@H](NC(=O)[C@@H]1CCCN1C(=O)[C@H](CCC(=O)O)NC(=O)CNC(=O)c1ccc2c(c1)C(=O)C(=O)c1ccccc1-2)C(=O)NCC(=O)O` [Example 52] (Phenanthrenequinone2carbonyl-GEPRG-OH) yielded an IC50 ([1]; pH 7, read-out: pNPP IC50) of 0.8 µM, an IC50 [2] of 3 µM and a CC50 [6] of over 30 µM.
With `N=C(N)NCCC[C@H](NC(=O)[C@@H]1CCCN1C(=O)[C@H](CCC(=O)O)NC(=O)[C@H](CCC(=O)O)NC(=O)c1ccc2c(c1)C(=O)C(=O)c1ccccc1-2)C(=O)NCC(=O)O` [Example 53] (Phenanthrenequinone2carbonyl-EEPRG-OH) the IC50 ([1]; pH 7, read-out: pNPP IC50) was 1 µM, the IC50 [2] was 3.7 µM and the CC50 [6] was over 30 µM.
`N=C(N)NCCC[C@H](NC(=O)c1ccc2c(c1)C(=O)C(=O)c1ccccc1-2)C(=O)N[C@@H](CCC(=O)O)C(=O)N1CCC[C@H]1C(=O)N[C@@H](CCCNC(=N)N)C(=O)NCC(=O)O` [Example 54] (Phenanthrenequinone2carbonyl-REPRG-OH) gave an IC50 [1] of 0.9 µM, an IC50 [2, 8] of 3.9 µM and a CC50 [6] of over 30 µM.
Work on `N=C(N)NCCC[C@H](NC(=O)[C@@H]1CCCN1C(=O)[C@H](CCCNC(=N)N)NC(=O)CNC(=O)c1ccc2c(c1)C(=O)C(=O)c1ccccc1-2)C(=O)NCC(=O)O` [Example 55] (Phenanthrenequinone2carbonyl-GRPRG-OH) yielded an IC50 ([1]; pH 7, read-out: pNPP IC50) of 1.4 µM, an IC50 [2] of 4.7 µM and a CC50 [6] of over 30 µM.
For `N=C(N)NCCC[C@H](NC(=O)[C@@H]1CCCN1C(=O)[C@H](CCCNC(=N)N)NC(=O)[C@H](CCC(=O)O)NC(=O)c1ccc2c(c1)C(=O)C(=O)c1ccccc1-2)C(=O)NCC(=O)O` [Example 56] (Phenanthrenequinone2carbonyl-ERPRG-OH), the IC50 ([1]; pH 7, read-out: pNPP IC50) was 0.8 µM, the IC50 [2] was 2.3 µM and the CC50 [6] was over 30 µM.
`N=C(N)NCCC[C@H](NC(=O)c1ccc2c(c1)C(=O)C(=O)c1ccccc1-2)C(=O)N[C@@H](CCCNC(=N)N)C(=O)N1CCC[C@H]1C(=O)N[C@@H](CCCNC(=N)N)C(=O)NCC(=O)O` [Example 57] (Phenanthrenequinone2carbonyl-RRPRG-OH) gave an IC50 ([1]; pH 7, read-out: pNPP IC50) of 1.3 µM, an IC50 [2] of 3.2 µM and a CC50 [6] of over 30 µM.
`COC(=O)CCCCCCCCC(=O)Nc1ccc2c(c1)-c1ccccc1C(=O)C2=O` [Example 79, 9-(9,10-Dioxo-9,10-dihydro-phenanthren-3-ylcarbamoyl)-nionanoic Acid Methyl Ester] showed an IC50 [1, 7] of 1.6 µM, an IC50 [2, 8] of over 30 µM and an IC50 [3] of 0.5 µM. The CC50 [4] was over 30 µM.
`O=C1C(=O)c2ccccc2-c2ccccc21` [Example 106, 9,10-Phenanthrenedione] showed an IC50 ([1]; pH 7, read-out: pNPP IC50) of 0.7 µM, an IC50 ([2]; pH 7.2, read-out: Ick IC50) of 3.1 µM and an IC50 [3] of 0.3 µM. It also gave a CC50 [6] of 1.3 µM.
